The target of series [1] is T1, human PDE IVA (Homo sapiens, UniProt P27815).
T1 construct: made in house; host or cells: yeast (inducible vector)
Briefly: Isolated recombinant human PDE IVA enzyme, phosphodiesterase activity. The format is biochemical. The conditions noted are these: 0.1 μM [3H]-cAMP, pH 7.5, 30° C. The text has this:
A gene encoding human PDE IV has been cloned from human monocytes (Livi, et al., 1990, Molecular and Cellular Biology, 10, 2678). Using similar procedures we have cloned human PDE IV genes from a number of sources including eosinophils, neutrophils, lymphocytes, monocytes, brain and neuronal tissues. These genes have been transfected into yeast using an inducible vector and various recombinant proteins have been expressed which have the biochemical characteristics of PDE IV (Beavo and Reifsnyder, 1990, TIPS, 11, 150). These recombinant enzymes, particularly the human eosinophil recombinant PDE IVA, have been used as the basis of a screen for potent, selective PDE IV inhibitors.
The enzymes were purified to isoenzyme homogeneity using standard chromatographic techniques.
Phosphodiesterase activity was assayed as follows. The reaction was conducted in 150 μl of standard mixture containing (final concentrations): 50 mM 2-[[tris(hydroxymethyl)methyl]amino]-1-ethanesulphonic acid (TES) --NaOH buffer (pH 7.5), 10 mM MgCl2, 0.1 μM [^3 H]-cAMP and vehicle or various concentrations of the test compounds. The reaction was initiated by addition of enzyme and conducted at 30° C. for between 5 to 30 min. The reaction was terminated by addition of 50 μl 2% trifluoroacetic acid containing [^14 C]-5'AMP for determining recovery of the product. An aliquot of the sample was then applied to a column of neutral alumina and the [^3 H]-cAMP eluted with 10 ml 0.1 TES-NaOH buffer (pH8). The [^3 H]-5'-AMP product was eluted with 2 ml 2M NaOH into a scintillation vial containing 10 ml of scintillation cocktail. Recovery of [^3 H]-5'AMP was determined using the [^14 C]-5'AMP and all assays were conducted in the linear range of the reaction. Results were expressed as IC50 values.

The nature of series [2]: Plasma levels after oral administration to squirrel monkeys. The format is in vivo. As to conditions: monkey, 10 mg/kg p.o., after 30 min, read-out: plasma level. As to the method:
The same two compounds were also administered orally to squirrel monkeys at 10 mg/kg p.o,. and the plasma levels of each determined. After 1 h the […] compound was present at 1 μg/ml whereas after 30 min the compound of Example 1 was present at 34 μg/ml, thus illustrating the good oral availability of the compound.

Series [3] can be described thus: Rat hepatocyte metabolism. The format is in vitro ADME. As to conditions: rat hepatocytes, after 3 h; read-out: percentage of compound remaining. As to the method: The quantity of compound remaining after a fixed period of time was then determined using mass spectroscopy.
Thus in one such test the compound of Example 1 was compared with a related compound particularly described in International Patent Specification No. WO94/14742 in which the phenylsulphonyl group in the compound of Example 1 is replaced by a hydrogen atom. After 3 h the percentage of each compound remaining was: […]

The pIC50 is the negative decadic logarithm of the IC50, by convention in mol/L. A word on the amount remaining: it is what is left of the initial amount, in per cent.

pIC50: −log10 of the molar value. Counter-ions that a name gives are not always drawn.

T1 sequence (P27815 whole entry): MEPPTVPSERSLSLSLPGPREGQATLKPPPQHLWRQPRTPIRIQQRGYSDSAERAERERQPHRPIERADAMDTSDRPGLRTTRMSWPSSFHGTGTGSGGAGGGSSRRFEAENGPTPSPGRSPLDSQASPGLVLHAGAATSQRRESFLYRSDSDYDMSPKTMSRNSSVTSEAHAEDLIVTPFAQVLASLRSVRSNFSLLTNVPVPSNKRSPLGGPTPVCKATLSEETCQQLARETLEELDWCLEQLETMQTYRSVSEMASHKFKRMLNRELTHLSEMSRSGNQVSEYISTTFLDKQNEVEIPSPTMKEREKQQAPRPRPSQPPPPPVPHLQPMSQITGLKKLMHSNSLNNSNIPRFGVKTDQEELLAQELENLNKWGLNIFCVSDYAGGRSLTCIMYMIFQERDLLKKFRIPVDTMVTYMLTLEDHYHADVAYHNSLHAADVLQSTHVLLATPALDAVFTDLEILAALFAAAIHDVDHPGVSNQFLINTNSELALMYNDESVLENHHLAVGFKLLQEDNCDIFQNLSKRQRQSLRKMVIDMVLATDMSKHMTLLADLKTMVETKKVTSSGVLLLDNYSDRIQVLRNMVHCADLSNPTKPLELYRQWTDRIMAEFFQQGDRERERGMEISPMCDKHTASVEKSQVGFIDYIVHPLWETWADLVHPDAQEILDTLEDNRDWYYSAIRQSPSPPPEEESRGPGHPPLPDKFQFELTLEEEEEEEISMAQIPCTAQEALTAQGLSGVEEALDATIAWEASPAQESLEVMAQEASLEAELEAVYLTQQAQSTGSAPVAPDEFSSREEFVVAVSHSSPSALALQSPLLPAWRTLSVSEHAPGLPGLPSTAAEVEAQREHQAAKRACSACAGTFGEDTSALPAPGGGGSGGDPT

Take `COc1ccc([C@H](Cc2ccncc2)c2ccc(NC(=O)NS(=O)(=O)c3ccccc3)cc2)cc1OC1CCCC1` [Example 1, (R)-N-[4-{1-(3-Cyclopentyloxy-4-methoxyphenyl)-2-(4-pyridyl)ethyl}-phenyl]-N'-(phenylsulphonyl) urea, hydrochloride]: in series [1], the pIC50 is 8.40. For the same compound, in series [2], the concentration at 0.5 h was 34000 ng/mL. Besides, the fraction remaining at 3 h in series [3] is 56%.
For the compound `COc1ccc([C@H](Cc2ccncc2)c2ccc(NC(=O)NS(=O)(=O)c3ccc(C)cc3)cc2)cc1OC1CCCC1` [Example 2, (R)-N-[4-{1-(3-Cyclopentyloxy-4-methoxyphenyl)-2-(4-pyridyl)ethyl}-phenyl]-N'-(methylphenylsulphonyl) urea, hydrochloride], in series [1], the pIC50 was 7.86.
As to `COc1ccc([C@H](Cc2ccncc2)c2ccc(NC(=O)NS(=O)(=O)c3ccc(Cl)cc3)cc2)cc1OC1CCCC1` [Example 3, (R)-N-[4-{1-(3-Cyclopentyloxy-4-methoxyphenyl)-2-(4-pyridyl)ethyl}-phenyl]-N'-(4-chlorophenylsulphonyl) urea, hydrochloride], in series [1], the pIC50 was 7.75.
